From PubChem BioAssay (NCI)
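Abbreviation: GI50, concentration required for 50% inhibition of growth. TGI: total growth inhibition.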

How the values were obtained:
Assay in all cases: NCI-60 cell line screen, 384-well format
[1] = tested on: UACC-62 melanoma
[2] = tested on: NCI-H23 lung
[3] = tested on: SW-620 colon
[4] = tested on: UACC-257 melanoma
[5] = tested on: MALME-3M melanoma
[6] = tested on: IGROV1 ovarian
[7] = tested on: OVCAR-8 ovarian
[8] = tested on: SK-OV-3 ovarian
[9] = tested on: A549 NSCLC
[10] = tested on: HL-60(TB) leukemia
[11] = tested on: SF-295 CNS
[12] = tested on: U251 glioblastoma
[13] = tested on: SNB-75 CNS
[14] = tested on: HOP-92 NSCLC
[15] = tested on: HCT-116 colon
[16] = tested on: UO-31 renal
[17] = tested on: MCF7 breast
[18] = tested on: MDA-MB-231 breast
[19] = tested on: NCI-H322M lung
[20] = tested on: NCI-H522 lung
[21] = tested on: 786-0 renal
[22] = tested on: RPMI-8226 leukemia
[23] = tested on: SNB-19 CNS
[24] = tested on: A498 renal
[25] = tested on: EKVX NSCLC
[26] = tested on: MOLT-4 leukemia
[27] = tested on: HT29 colon
[28] = tested on: OVCAR-5 ovarian
[29] = tested on: HS 578T breast
[30] = tested on: NCI/ADR-RES ovarian
[31] = tested on: OVCAR-3 ovarian
[32] = tested on: SF-268 CNS
[33] = tested on: SF-539 CNS
[34] = tested on: SK-MEL-28 melanoma
[35] = tested on: SN12C renal
[36] = tested on: LOX IMVI melanoma
[37] = tested on: MDA-MB-468 breast
[38] = tested on: HCT-15 colon
[39] = tested on: T-47D breast
[40] = tested on: BT-549 breast
[41] = tested on: KM12 colon
[42] = tested on: DU-145 prostate
[43] = tested on: RXF 393 renal
[44] = tested on: M14 melanoma
[45] = tested on: MDA-MB-435 melanoma
[46] = tested on: OVCAR-4 ovarian
[47] = tested on: ACHN renal
[48] = tested on: CCRF-CEM leukemia
[49] = tested on: SK-MEL-2 melanoma
[50] = tested on: K-562 leukemia
[51] = tested on: PC-3 prostate
[52] = tested on: HOP-62 NSCLC
[53] = tested on: CAKI-1 renal
[54] = tested on: TK-10 renal
[55] = tested on: NCI-H226 lung

With `CC(C)Cn1cnc2c(N)nc3ccccc3c21` as the compound, how does the GI50 [1] read?
The GI50 was over 100 µM.

And the TGI [1]?
The TGI was over 100 µM.

What about the GI50 [2] of the same compound?
Its GI50 is over 100 µM.

What about the TGI [2] of the same compound?
The TGI was over 100 µM.

And the GI50 [3]?
Its GI50 is over 100 µM.

And the TGI [3]?
The TGI was over 100 µM.

And the GI50 [4]?
The GI50 was over 100 µM.

What about the TGI [4] of the same compound?
Its TGI is over 100 µM.

And the GI50 [5]?
The GI50 was over 100 µM.

What about the TGI [5] of the same compound?
The TGI was over 100 µM.

What about the GI50 [6] of the same compound?
Its GI50 is over 100 µM.

And the TGI [6]?
Its TGI is over 100 µM.

And the GI50 [7]?
Its GI50 is over 100 µM.

What about the TGI [7] of the same compound?
Its TGI is over 100 µM.

And the GI50 [8]?
Its GI50 is over 100 µM.

And the TGI [8]?
Its TGI is over 100 µM.

What about the GI50 [9] of the same compound?
Its GI50 is over 100 µM.

What about the TGI [9] of the same compound?
The TGI was over 100 µM.

What about the GI50 [10] of the same compound?
The GI50 was over 100 µM.

What about the TGI [10] of the same compound?
Its TGI is over 100 µM.

And the GI50 [11]?
The GI50 was over 100 µM.

What about the TGI [11] of the same compound?
Its TGI is over 100 µM.

What about the GI50 [12] of the same compound?
Its GI50 is over 100 µM.

What about the TGI [12] of the same compound?
The TGI was over 100 µM.

And the GI50 [13]?
The GI50 was over 100 µM.

What about the TGI [13] of the same compound?
The TGI was over 100 µM.

What about the GI50 [14] of the same compound?
Its GI50 is over 100 µM.

And the TGI [14]?
Its TGI is over 100 µM.

What about the GI50 [15] of the same compound?
The GI50 was over 100 µM.

And the TGI [15]?
Its TGI is over 100 µM.

And the GI50 [16]?
Its GI50 is over 100 µM.

What about the TGI [16] of the same compound?
Its TGI is over 100 µM.

And the GI50 [17]?
Its GI50 is over 100 µM.

And the TGI [17]?
The TGI was over 100 µM.

What about the GI50 [18] of the same compound?
The GI50 was over 100 µM.

What about the TGI [18] of the same compound?
The TGI was over 100 µM.

What about the GI50 [19] of the same compound?
Its GI50 is over 100 µM.

And the TGI [19]?
The TGI was over 100 µM.

What about the GI50 [20] of the same compound?
The GI50 was over 100 µM.

And the TGI [20]?
The TGI was over 100 µM.

What about the GI50 [21] of the same compound?
The GI50 was over 100 µM.

What about the TGI [21] of the same compound?
The TGI was over 100 µM.

What about the GI50 [22] of the same compound?
The GI50 was over 100 µM.

What about the TGI [22] of the same compound?
Its TGI is over 100 µM.

What about the GI50 [23] of the same compound?
The GI50 was over 100 µM.

And the TGI [23]?
Its TGI is over 100 µM.

And the GI50 [24]?
The GI50 was over 100 µM.

What about the TGI [24] of the same compound?
The TGI was over 100 µM.

What about the GI50 [25] of the same compound?
Its GI50 is 67.9 µM.

What about the TGI [25] of the same compound?
Its TGI is over 100 µM.

And the GI50 [26]?
Its GI50 is over 100 µM.

And the TGI [26]?
The TGI was over 100 µM.

What about the GI50 [27] of the same compound?
The GI50 was over 100 µM.

What about the TGI [27] of the same compound?
Its TGI is over 100 µM.

What about the GI50 [28] of the same compound?
Its GI50 is over 100 µM.

And the TGI [28]?
Its TGI is over 100 µM.

And the GI50 [29]?
Its GI50 is over 100 µM.

And the TGI [29]?
The TGI was over 100 µM.

And the GI50 [30]?
Its GI50 is over 100 µM.

What about the TGI [30] of the same compound?
Its TGI is over 100 µM.

What about the GI50 [31] of the same compound?
The GI50 was over 100 µM.

What about the TGI [31] of the same compound?
The TGI was over 100 µM.

What about the GI50 [32] of the same compound?
Its GI50 is over 100 µM.

And the TGI [32]?
Its TGI is over 100 µM.

What about the GI50 [33] of the same compound?
Its GI50 is over 100 µM.

And the TGI [33]?
Its TGI is over 100 µM.

What about the GI50 [34] of the same compound?
The GI50 was over 100 µM.

What about the TGI [34] of the same compound?
Its TGI is over 100 µM.

And the GI50 [35]?
The GI50 was over 100 µM.

What about the TGI [35] of the same compound?
The TGI was over 100 µM.

What about the GI50 [36] of the same compound?
Its GI50 is over 100 µM.

And the TGI [36]?
The TGI was over 100 µM.

What about the GI50 [37] of the same compound?
The GI50 was over 100 µM.

What about the TGI [37] of the same compound?
Its TGI is over 100 µM.

What about the GI50 [38] of the same compound?
Its GI50 is over 100 µM.

And the TGI [38]?
Its TGI is over 100 µM.

What about the GI50 [39] of the same compound?
The GI50 was over 100 µM.

And the TGI [39]?
Its TGI is over 100 µM.

What about the GI50 [40] of the same compound?
The GI50 was over 100 µM.

And the TGI [40]?
The TGI was over 100 µM.

And the GI50 [41]?
Its GI50 is over 100 µM.

What about the TGI [41] of the same compound?
The TGI was over 100 µM.

What about the GI50 [42] of the same compound?
The GI50 was over 100 µM.

What about the TGI [42] of the same compound?
Its TGI is over 100 µM.

What about the GI50 [43] of the same compound?
Its GI50 is over 100 µM.

What about the TGI [43] of the same compound?
Its TGI is over 100 µM.

What about the GI50 [44] of the same compound?
The GI50 was over 100 µM.

And the TGI [44]?
The TGI was over 100 µM.

And the GI50 [45]?
Its GI50 is over 100 µM.

What about the TGI [45] of the same compound?
Its TGI is over 100 µM.

What about the GI50 [46] of the same compound?
The GI50 was over 100 µM.

And the TGI [46]?
Its TGI is over 100 µM.

What about the GI50 [47] of the same compound?
The GI50 was over 100 µM.

And the TGI [47]?
Its TGI is over 100 µM.

What about the GI50 [48] of the same compound?
Its GI50 is over 100 µM.

What about the TGI [48] of the same compound?
Its TGI is over 100 µM.

What about the GI50 [49] of the same compound?
The GI50 was over 100 µM.

And the TGI [49]?
The TGI was over 100 µM.

What about the GI50 [50] of the same compound?
The GI50 was over 100 µM.

And the TGI [50]?
Its TGI is over 100 µM.

And the GI50 [51]?
The GI50 was over 100 µM.

What about the TGI [51] of the same compound?
Its TGI is over 100 µM.

And the GI50 [52]?
Its GI50 is over 100 µM.

And the TGI [52]?
Its TGI is over 100 µM.

What about the GI50 [53] of the same compound?
Its GI50 is over 100 µM.

What about the TGI [53] of the same compound?
The TGI was over 100 µM.

And the GI50 [54]?
Its GI50 is over 100 µM.

And the TGI [54]?
The TGI was over 100 µM.

And the GI50 [55]?
The GI50 was over 100 µM.

And the TGI [55]?
Its TGI is over 100 µM.
